Species on record: Rattus norvegicus
Assay: DrugMatrix - Regimen: Daily Repeat
Assay type: toxicity, organism-based, Sprague-Dawley
Parameters: regimen Daily Repeat, gender Male, age 6-8 weeks
Conditions: in vivo, po, route oral GAVAGE, vehicle .5 % CMC; for ABSOLUTE BASOPHIL / ABSOLUTE EOSINOPHIL / ABSOLUTE LYMPHOCYTE / ABSOLUTE MONOCYTE / ABSOLUTE SEGMENTED NEUTROPHIL / BASOPHIL / EOSINOPHIL / ERYTHROCYTE COUNT / HEMATOCRIT / HEMOGLOBIN / LEUKOCYTE COUNT / LYMPHOCYTE / MEAN CORPUSCULAR HEMOGLOBIN / MEAN CORPUSCULAR HEMOGLOBIN CONCENTRATION / MEAN CORPUSCULAR VOLUME / MONOCYTE / NEUTROPHIL / NUCLEATED RED BLOOD CELLS / PLATELET COUNT: tissue Blood; for ALANINE AMINOTRANSFERASE / ALBUMIN / ALKALINE PHOSPHATASE / ASPARTATE AMINOTRANSFERASE / BLOOD UREA NITROGEN / CARBON DIOXIDE / CHLORIDE / CHOLESTEROL / CREATINE PHOSPHOKINASE / CREATININE / GLUCOSE / LACTATE DEHYDROGENASE / LIPASE / PHOSPHORUS / POTASSIUM / SODIUM / TOTAL BILIRUBIN / TOTAL PROTEIN / URIC ACID: tissue Plasma
[1] = 100 mg/kg, 120 h, dose level Low, time 5 day
[2] = 501 mg/kg, 72 h, dose level High, time 3 day
[3] = 501 mg/kg, 120 h, dose level High, time 5 day

CCc1ccc(C(=O)C(C)CN2CCCCC2)cc1 (centres undefined) [EPERISONE]
ABSOLUTE BASOPHIL [1]: 0 CELLS/uL
ABSOLUTE EOSINOPHIL [1]: 0 CELLS/uL
ABSOLUTE LYMPHOCYTE [1]: 13749 CELLS/uL
ABSOLUTE MONOCYTE [1]: 246.33 CELLS/uL
ABSOLUTE SEGMENTED NEUTROPHIL [1]: 1338 CELLS/uL
BASOPHIL [1]: 0%
EOSINOPHIL [1]: 0%
ERYTHROCYTE COUNT [1]: 5.46 x10E6/uL
HEMATOCRIT [1]: 34.27%
HEMOGLOBIN [1]: 13.2 G/DL
LEUKOCYTE COUNT [1]: 15.33 x10E3/uL
LYMPHOCYTE [1]: 89.67%
MEAN CORPUSCULAR HEMOGLOBIN [1]: 24.17 pg
MEAN CORPUSCULAR HEMOGLOBIN CONCENTRATION [1]: 38.53 G/DL
MEAN CORPUSCULAR VOLUME [1]: 62.83 fL
MONOCYTE [1]: 1.67%
NEUTROPHIL [1]: 8.67%
NUCLEATED RED BLOOD CELLS [1]: 0 /100WBC
PLATELET COUNT [1]: 1278.33 x10E3/uL
ALANINE AMINOTRANSFERASE [1]: 50 u/L
ALBUMIN [1]: 4.27 G/DL
ALKALINE PHOSPHATASE [1]: 325.67 u/L
ASPARTATE AMINOTRANSFERASE [1]: 101.33 u/L
BLOOD UREA NITROGEN [1]: 17.33 mg/dL
CARBON DIOXIDE [1]: 25.33 mmol/L
CHLORIDE [1]: 106 MEQ/L
CHOLESTEROL [1]: 66.33 mg/dL
CREATINE PHOSPHOKINASE [1]: 609 u/L
CREATININE [1]: 0.21 mg/dL
GLUCOSE [1]: 159 mg/dL
LACTATE DEHYDROGENASE [1]: 465 u/L
LIPASE [1]: 9.67 u/L
PHOSPHORUS [1]: 13.17 mg/dL
POTASSIUM [1]: 6.21 MEQ/L
SODIUM [1]: 144.2 MEQ/L
TOTAL BILIRUBIN [1]: 0.13 mg/dL
TOTAL PROTEIN [1]: 5.9 G/DL
URIC ACID [1]: 1.77 mg/dL
ABSOLUTE BASOPHIL [2]: 0 CELLS/uL
ABSOLUTE EOSINOPHIL [2]: 0 CELLS/uL
ABSOLUTE LYMPHOCYTE [2]: 13225.33 CELLS/uL
ABSOLUTE MONOCYTE [2]: 319.33 CELLS/uL
ABSOLUTE SEGMENTED NEUTROPHIL [2]: 888.67 CELLS/uL
BASOPHIL [2]: 0%
EOSINOPHIL [2]: 0%
ERYTHROCYTE COUNT [2]: 5.61 x10E6/uL
HEMATOCRIT [2]: 35.1%
HEMOGLOBIN [2]: 13.27 G/DL
LEUKOCYTE COUNT [2]: 14.43 x10E3/uL
LYMPHOCYTE [2]: 91.33%
MEAN CORPUSCULAR HEMOGLOBIN [2]: 23.63 pg
MEAN CORPUSCULAR HEMOGLOBIN CONCENTRATION [2]: 37.83 G/DL
MEAN CORPUSCULAR VOLUME [2]: 62.53 fL
MONOCYTE [2]: 2.33%
NEUTROPHIL [2]: 6.33%
NUCLEATED RED BLOOD CELLS [2]: 0 /100WBC
PLATELET COUNT [2]: 1433.33 x10E3/uL
ALANINE AMINOTRANSFERASE [2]: 58.67 u/L
ALBUMIN [2]: 3.97 G/DL
ALKALINE PHOSPHATASE [2]: 399 u/L
ASPARTATE AMINOTRANSFERASE [2]: 91.67 u/L
BLOOD UREA NITROGEN [2]: 14.33 mg/dL
CARBON DIOXIDE [2]: 25 mmol/L
CHLORIDE [2]: 103.67 MEQ/L
CHOLESTEROL [2]: 64.67 mg/dL
CREATINE PHOSPHOKINASE [2]: 345 u/L
CREATININE [2]: 0.23 mg/dL
GLUCOSE [2]: 157.67 mg/dL
LACTATE DEHYDROGENASE [2]: 414.67 u/L
LIPASE [2]: 9 u/L
PHOSPHORUS [2]: 11.17 mg/dL
POTASSIUM [2]: 6.18 MEQ/L
SODIUM [2]: 143.13 MEQ/L
TOTAL BILIRUBIN [2]: 0.2 mg/dL
TOTAL PROTEIN [2]: 5.33 G/DL
URIC ACID [2]: 2.03 mg/dL
ABSOLUTE BASOPHIL [3]: 0 CELLS/uL
ABSOLUTE EOSINOPHIL [3]: 46.67 CELLS/uL
ABSOLUTE LYMPHOCYTE [3]: 15630.33 CELLS/uL
ABSOLUTE MONOCYTE [3]: 287 CELLS/uL
ABSOLUTE SEGMENTED NEUTROPHIL [3]: 969.33 CELLS/uL
BASOPHIL [3]: 0%
EOSINOPHIL [3]: 0.33%
ERYTHROCYTE COUNT [3]: 5.98 x10E6/uL
HEMATOCRIT [3]: 36.77%
HEMOGLOBIN [3]: 13.93 G/DL
LEUKOCYTE COUNT [3]: 16.93 x10E3/uL
LYMPHOCYTE [3]: 92.33%
MEAN CORPUSCULAR HEMOGLOBIN [3]: 23.33 pg
MEAN CORPUSCULAR HEMOGLOBIN CONCENTRATION [3]: 37.93 G/DL
MEAN CORPUSCULAR VOLUME [3]: 61.5 fL
MONOCYTE [3]: 1.67%
NEUTROPHIL [3]: 5.67%
NUCLEATED RED BLOOD CELLS [3]: 0 /100WBC
PLATELET COUNT [3]: 1391 x10E3/uL
ALANINE AMINOTRANSFERASE [3]: 69 u/L
ALBUMIN [3]: 4.43 G/DL
ALKALINE PHOSPHATASE [3]: 394.33 u/L
ASPARTATE AMINOTRANSFERASE [3]: 96.33 u/L
BLOOD UREA NITROGEN [3]: 16 mg/dL
CARBON DIOXIDE [3]: 28 mmol/L
CHLORIDE [3]: 106.33 MEQ/L
CHOLESTEROL [3]: 63.33 mg/dL
CREATINE PHOSPHOKINASE [3]: 1265 u/L
CREATININE [3]: 0.3 mg/dL
GLUCOSE [3]: 145.67 mg/dL
LACTATE DEHYDROGENASE [3]: 187.33 u/L
LIPASE [3]: 9.33 u/L
PHOSPHORUS [3]: 12.2 mg/dL
POTASSIUM [3]: 6.24 MEQ/L
SODIUM [3]: 145.8 MEQ/L
TOTAL BILIRUBIN [3]: 0.2 mg/dL
TOTAL PROTEIN [3]: 6.07 G/DL
URIC ACID [3]: 1.97 mg/dL
